Data set [1] is described as follows: Cytotoxicity against HUCCA cells assessed as decrease in cell viability after 24 hrs by MTT assay. The data set is classed as functional, cell-based. As to conditions: Homo sapiens; call rule not given here. Background: Tetrazolium assays rely on reduction of a dye to a coloured formazan, in cell work by metabolically active cells.
Data set [2] is described as follows: Cytotoxicity against human QBC939 cells assessed as decrease in cell viability after 24 hrs by MTT assay. The following applies: QBC939, 24 h. In kind it is functional, cell-based.
A short description of data set [3]: Cytotoxicity against RBEC assessed as decrease in cell viability after 24 hrs by MTT assay. In kind it is toxicity. The following applies: rat, RBEC cells.
A short description of data set [4]: Cytotoxicity against RBEC assessed as cell survival at 20 uM after 24 hrs by MTT assay. The data set is classed as toxicity. As to conditions: rat, RBEC cells; read-out: Survival.
The nature of data set [5]: Drug degradation in phosphate buffer at pH 7.4 measured up to 25 mins by UV-Vis spectral analysis. The following applies: for Stability: buffer, pH 7.4, 25 min. In kind it is physicochemical.
Data set [6] is described as follows: Cytotoxicity against human HL7702 cells assessed as decrease in cell viability after 24 hrs by MTT assay. The data set is classed as functional, cell-based. The following applies: L02, 24 h.
Data set [7] can be described thus: Cytotoxicity against HIBEC assessed as decrease in cell viability after 24 hrs by MTT assay. In kind it is toxicity. As to conditions: human, HIBEC cells.
A short description of data set [8]: Cell cycle arrest in HUCCA cells assessed as accumulation at G2/M phase after 24 hrs by flow cytometric analysis. The data set is classed as functional, cell-based. The following applies: Homo sapiens. A general note: Flow cytometry measures light scatter and fluorescence of single cells or particles in a stream.
Data set [9] is described as follows: Cell cycle arrest in human QBC939 cells assessed as accumulation at G2/M phase after 24 hrs by flow cytometric analysis. The data set is classed as functional, cell-based.
Data set [10] is described as follows: Cell cycle arrest in RBEC cells assessed as accumulation at G2/M phase after 24 hrs by flow cytometric analysis. The data set is classed as ADME, cell-based. The following applies: rat.
Data set [11] deals with HUCCA. In words: Increase in p53 expression in HUCCA cells after 24 hrs by Western blot analysis. In kind it is functional, cell-based. As to conditions: Homo sapiens. For orientation: A western blot detects proteins with antibodies after separation by electrophoresis.
Data set [12] in a line: Decrease in Cdc2 expression in HUCCA cells after 24 hrs by Western blot analysis. In kind it is functional, cell-based. As to conditions: Homo sapiens.
A short description of data set [13]: Increase in p53 expression in RBEC after 24 hrs by Western blot analysis. As to conditions: rat.
The nature of data set [14]: Decrease in Cdc2 expression in RBEC after 24 hrs by Western blot analysis. The data set is classed as ADME. The following applies: rat.
Data set [15] deals with QBC939. As to the kind of experiment: Increase in p53 expression in human QBC939 cells after 24 hrs by Western blot analysis. In kind it is functional, cell-based.
Data set [16] is described as follows: Decrease in Cdc2 expression in human QBC939 cells after 24 hrs by Western blot analysis. In kind it is functional, cell-based.
Data set [17] in a line: Induction of apoptosis in HUCCA cells at 5 uM after 24 hrs by annexin V/propidium iodide staining based flow cytometry (reference value: 9.6%). The data set is classed as functional, Homo sapiens.
Data set [18] can be described thus: Induction of apoptosis in HUCCA cells at 7.5 uM after 24 hrs by annexin V/propidium iodide staining based flow cytometry (reference value: 9.6%). The data set is classed as functional, Homo sapiens.
The nature of data set [19]: Induction of apoptosis in HUCCA cells at 10 uM after 24 hrs by annexin V/propidium iodide staining based flow cytometry (reference value: 9.6%). The data set is classed as functional, Homo sapiens.
Data set [20] in a line: Induction of apoptosis in RBEC at 5 uM after 24 hrs by annexin V/propidium iodide staining based flow cytometry (reference value: 2.3%). The following applies: rat.
The nature of data set [21]: Induction of apoptosis in RBEC at 7.5 uM after 24 hrs by annexin V/propidium iodide staining based flow cytometry (reference value: 2.3%). The following applies: rat.
A short description of data set [22]: Induction of apoptosis in RBEC at 10 uM after 24 hrs by annexin V/propidium iodide staining based flow cytometry (reference value: 2.3%). As to conditions: rat.
Data set [23] can be described thus: Induction of apoptosis in human QBC939 cells at 5 uM after 24 hrs by annexin V/propidium iodide staining based flow cytometry (reference value: 2.21%). In kind it is functional.
The nature of data set [24]: Induction of apoptosis in human QBC939 cells at 7.5 uM after 24 hrs by annexin V/propidium iodide staining based flow cytometry (reference value: 2.21%). In kind it is functional.
The nature of data set [25]: Induction of apoptosis in human QBC939 cells at 10 uM after 24 hrs by annexin V/propidium iodide staining based flow cytometry (reference value: 2.21%). The data set is classed as functional.
For data set [26], the system named is HUCCA. As to the kind of experiment: Induction of apoptosis in HUCCA cells after 24 hrs by annexin V/propidium iodide staining based flow cytometry. The following applies: Homo sapiens. In kind it is functional, cell-based.
Data set [27] in a line: Induction of apoptosis in RBEC after 24 hrs by annexin V/propidium iodide staining based flow cytometry. The following applies: rat.
Data set [28] relates to QBC939. As to the kind of experiment: Induction of apoptosis in human QBC939 cells after 24 hrs by annexin V/propidium iodide staining based flow cytometry. The data set is classed as functional, cell-based.
For data set [29], the system named is HUCCA. As to the kind of experiment: Induction of apoptosis in HUCCA cells assessed as increase in Bax protein expression after 24 hrs by Western blot analysis. The data set is classed as functional, cell-based. The following applies: Homo sapiens.
The nature of data set [30]: Induction of apoptosis in RBEC assessed as increase in Bax protein expression after 24 hrs by Western blot analysis. The following applies: rat.
Data set [31] has as its system QBC939. In words: Induction of apoptosis in human QBC939 cells assessed as increase in Bax protein expression after 24 hrs by Western blot analysis. The data set is classed as functional, cell-based.
The subject of data set [32] is HUCCA. As to the kind of experiment: Induction of apoptosis in HUCCA cells assessed as decrease in Bcl-2 protein expression after 24 hrs by Western blot analysis. In kind it is functional, cell-based. As to conditions: Homo sapiens.
Data set [33] is described as follows: Induction of apoptosis in RBEC assessed as decrease in Bcl-2 protein expression after 24 hrs by Western blot analysis. As to conditions: rat.
The subject of data set [34] is QBC939. In words: Induction of apoptosis in human QBC939 cells assessed as decrease in Bcl-2 protein expression after 24 hrs by Western blot analysis. In kind it is functional, cell-based.
The test system of data set [35] is HUCCA. As to the kind of experiment: Induction of apoptosis in HUCCA cells assessed as decrease in PARP cleavage after 24 hrs by Western blot analysis. As to conditions: Homo sapiens. The data set is classed as functional, cell-based.
A short description of data set [36]: Cell cycle arrest in RBEC cells assessed as accumulation at G2/M phase at 20 uM after 24 hrs by flow cytometric analysis. As to conditions: rat. In kind it is cell-based.
Data set [37] in a line: Increase in p53 expression in RBEC at 20 uM after 24 hrs by Western blot analysis. The data set is classed as ADME. The following applies: rat.
The nature of data set [38]: Decrease in Cdc2 expression in RBEC at 20 uM after 24 hrs by Western blot analysis. As to conditions: rat.
A short description of data set [39]: Induction of apoptosis in HUCCA cells at 20 uM after 24 hrs by annexin V/propidium iodide staining based flow cytometry (reference value: 9.6%). In kind it is functional, Homo sapiens.
The nature of data set [40]: Induction of apoptosis in RBEC at 20 uM after 24 hrs by annexin V/propidium iodide staining based flow cytometry (reference value: 2.3%). The following applies: rat.
Data set [41] in a line: Induction of apoptosis in human QBC939 cells at 20 uM after 24 hrs by annexin V/propidium iodide staining based flow cytometry (reference value: 2.21%). In kind it is functional.

Usually IC50 stands for the concentration that inhibits the measured activity by half.

SMILES strings stand for the structures.

For the compound `O=c1[nH]cc(F)c(=O)[nH]1` [FLUOROURACIL], the IC50 is 13.4 µM in data set [1] and 16.1 µM in data set [2]. Also, the IC50 at 24 h in data set [3] came to 19.3 µM.
For the compound `C=CCc1cc(/C=C2\CN(S(=O)(=O)CCC)C/C(=C\c3ccc(O)c(CC=C)c3)C2=O)ccc1O`, the viability at 24 h, 20 µM in data set [4] is less than 50%.
Still for that read-out and setting: as for `C=CCc1cc(/C=C2\CN(C(C)C)C/C(=C\c3ccc(O)c(CC=C)c3)C2=O)ccc1O`, the figure is less than 50%.
Still for that read-out and setting: as for `C=CCc1cc(/C=C2\CN(C3CC3)C/C(=C\c3ccc(OC(C)(C)C)cc3)C2=O)ccc1O`, the figure is less than 50%.
For the compound `C=CCc1cc(/C=C2\CN(C3CC3)C/C(=C\c3ccc(O)c(CC=C)c3)C2=O)ccc1O`, the IC50 at 24 h in data set [3] was found to be 14.4 µM. In [4], the viability at 24 h, 20 µM was less than 50%.
Take `C=CCc1cc(/C=C2\CN(C(=O)c3ccccc3)C/C(=C\c3ccc(O)c(CC=C)c3)C2=O)ccc1O`: the viability at 24 h, 20 µM in data set [4] is less than 50%.
As for `C=CCc1cc(/C=C2\CC/C(=C\c3ccc(O)c(CC=C)c3)C2=O)ccc1O`, in data set [3], the IC50 at 24 h worked out at 10.7 µM. In addition, the Stability result in [5] is given as “Stable”.
Regarding `C=CCc1cc(/C=C2\COC/C(=C\c3ccc(O)c(CC=C)c3)C2=O)ccc1O`, the IC50 at 24 h in data set [3] is 15 µM. In [4], the viability at 24 h, 20 µM was less than 50%. Further, in data set [5], the Stability entry was “Stable”.
As for `C=CCc1cc(/C=C2\CCC/C(=C\c3ccc(O)c(CC=C)c3)C2=O)ccc1O`, the viability at 24 h, 20 µM in data set [4] was less than 50%.
For `C=CCc1cc(/C=C2\CN(CCC)C/C(=C\c3cc(OC)c(OC)cc3OC)C2=O)ccc1O`, the viability at 24 h, 20 µM in data set [4] is less than 50%.
With `C=CCc1cc(/C=C2\CSC/C(=C\c3ccc(O)c(CC=C)c3)C2=O)ccc1O`, the IC50 in data set [1] turned out to be 8.7 µM; in data set [2], 9.3 µM; in data set [6], 9.7 µM. Also, the IC50 at 24 h was 8.1 to 8.9 µM in data set [3] and 9.8 µM in [7]. In addition, in data set [4], the viability at 24 h, 20 µM was less than 50%. Moreover, the Stability result in [5] is “Stable”. The Activity result in data set [8], in data set [9], in [10], in [11], in data set [12] and in data set [13] was “Dose-dependent effect” in each case. The Activity entry is “Dose-dependent effect” in data set [14]; “Dose-dependent effect” in data set [15]; “Dose-dependent effect” in data set [16]; 19.4% in data set [17]; 31.8% in data set [18]; 41.6% in data set [19]. Further, the Activity is reported as 9.3% in data set [20]; 13.9% in data set [21]; 39.9% in [22]; 7.6% in data set [23]; 15.8% in [24]; 38.6% in data set [25]. Besides, the Activity entry in data set [26], in data set [27], in data set [28], in data set [29], in data set [30] and in [31] was “Dose-dependent effect” in each case. Moreover, the Activity entry in [32], in data set [33], in data set [34] and in [35] was “Dose-dependent effect” each time.
Take `COc1cc(/C=C/C(=O)CC(=O)/C=C/c2ccc(O)c(OC)c2)ccc1O` [CURCUMIN]: the degraded at 25 min in [5] (phosphate buffer, pH 7.4, read-out: Drug degradation) came to 50%. Further, the Activity result in [36] is given as “Non-Toxic”; in data set [37] it was “Non-Toxic”; in data set [38] it was “Non-Toxic”; in data set [39], 21.7%; in data set [40] it was 27.6%; in data set [41] it was 18.5%.
Consider `C=CCc1cc(/C=C2\CNC/C(=C\c3ccc(O)c(CC=C)c3)C2=O)ccc1O`, for which the viability at 24 h, 20 µM in data set [4] was less than 50%.
